Laboratory results taken from the kinase profiling compilation of Christmann-Franck et al. (2016).

Experiments:
Assay in all cases: radiometric filter-binding kinase assay, Kinase HotSpot
Details in all cases: compound 0.5 µM; ATP 10 µM
ACVR1B (human) = ACVR1B (human) (UniProt P36896)
AKT1 (human) = AKT1 (human) (UniProt P31749)
AURKA (human) = AURKA (human) (UniProt O14965)
AXL (human) = AXL (human) (UniProt P30530)
BTK (human) = BTK (human) (UniProt Q06187)
CAMKK2 (human) = CAMKK2 (human) (UniProt Q96RR4)
CDC42BPA (human) = CDC42BPA (human) (UniProt Q5VT25)
CDK9 CCNT1 (human) = CDK9 CCNT1 (human) (UniProt P50750+O60563)
CSNK1A1 (human) = CSNK1A1 (human) (UniProt P48729)
CSNK1G3 (human) = CSNK1G3 (human) (UniProt Q9Y6M4)
CSNK2A1 (human) = CSNK2A1 (human) (UniProt P68400)
CSNK2A1 (human), sequence (P68400 whole entry, looked up): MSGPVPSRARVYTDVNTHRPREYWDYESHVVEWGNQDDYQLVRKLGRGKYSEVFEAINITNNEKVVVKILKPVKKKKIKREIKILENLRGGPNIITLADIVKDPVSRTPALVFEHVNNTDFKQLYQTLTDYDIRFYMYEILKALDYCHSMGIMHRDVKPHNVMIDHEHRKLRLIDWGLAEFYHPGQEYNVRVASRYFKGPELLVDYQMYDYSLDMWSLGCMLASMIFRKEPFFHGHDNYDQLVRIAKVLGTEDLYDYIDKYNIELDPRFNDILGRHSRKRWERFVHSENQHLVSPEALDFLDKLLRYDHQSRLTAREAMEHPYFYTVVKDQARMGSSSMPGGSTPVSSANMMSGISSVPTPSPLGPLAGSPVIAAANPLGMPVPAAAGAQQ

EPHA5 (human) = EPHA5 (human) (UniProt P54756)
EPHA5 (human), sequence (P54756 whole entry, looked up): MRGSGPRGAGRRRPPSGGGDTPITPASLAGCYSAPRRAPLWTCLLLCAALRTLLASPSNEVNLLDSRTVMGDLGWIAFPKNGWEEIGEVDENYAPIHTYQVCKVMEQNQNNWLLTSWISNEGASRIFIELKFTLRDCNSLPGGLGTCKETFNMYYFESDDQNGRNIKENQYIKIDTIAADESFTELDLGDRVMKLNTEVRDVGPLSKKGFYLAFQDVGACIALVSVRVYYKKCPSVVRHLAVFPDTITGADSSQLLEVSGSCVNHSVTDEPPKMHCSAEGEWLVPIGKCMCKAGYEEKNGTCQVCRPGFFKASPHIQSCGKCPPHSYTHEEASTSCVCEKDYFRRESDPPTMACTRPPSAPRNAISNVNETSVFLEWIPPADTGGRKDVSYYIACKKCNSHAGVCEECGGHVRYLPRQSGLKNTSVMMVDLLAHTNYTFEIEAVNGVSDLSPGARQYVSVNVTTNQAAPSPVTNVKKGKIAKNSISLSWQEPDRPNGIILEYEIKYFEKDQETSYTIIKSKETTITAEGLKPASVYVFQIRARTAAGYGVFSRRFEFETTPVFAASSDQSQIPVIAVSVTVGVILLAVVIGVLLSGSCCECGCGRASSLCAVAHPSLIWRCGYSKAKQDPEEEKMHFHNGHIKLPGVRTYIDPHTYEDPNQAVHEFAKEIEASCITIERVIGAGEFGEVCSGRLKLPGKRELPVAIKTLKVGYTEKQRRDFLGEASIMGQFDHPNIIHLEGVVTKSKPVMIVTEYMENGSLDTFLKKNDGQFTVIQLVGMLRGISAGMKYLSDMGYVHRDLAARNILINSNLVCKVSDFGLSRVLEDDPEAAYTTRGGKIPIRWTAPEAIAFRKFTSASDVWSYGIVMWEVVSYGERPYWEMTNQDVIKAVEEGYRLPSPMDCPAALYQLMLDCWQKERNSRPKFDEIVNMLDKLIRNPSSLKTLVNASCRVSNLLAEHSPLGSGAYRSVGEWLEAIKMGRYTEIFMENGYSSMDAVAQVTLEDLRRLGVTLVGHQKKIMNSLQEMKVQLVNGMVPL

EPHB2 (human) = EPHB2 (human) (UniProt P29323)
FGFR3 (human) = FGFR3 (human) (UniProt P22607)
FGFR3 (human), sequence (P22607 whole entry, looked up): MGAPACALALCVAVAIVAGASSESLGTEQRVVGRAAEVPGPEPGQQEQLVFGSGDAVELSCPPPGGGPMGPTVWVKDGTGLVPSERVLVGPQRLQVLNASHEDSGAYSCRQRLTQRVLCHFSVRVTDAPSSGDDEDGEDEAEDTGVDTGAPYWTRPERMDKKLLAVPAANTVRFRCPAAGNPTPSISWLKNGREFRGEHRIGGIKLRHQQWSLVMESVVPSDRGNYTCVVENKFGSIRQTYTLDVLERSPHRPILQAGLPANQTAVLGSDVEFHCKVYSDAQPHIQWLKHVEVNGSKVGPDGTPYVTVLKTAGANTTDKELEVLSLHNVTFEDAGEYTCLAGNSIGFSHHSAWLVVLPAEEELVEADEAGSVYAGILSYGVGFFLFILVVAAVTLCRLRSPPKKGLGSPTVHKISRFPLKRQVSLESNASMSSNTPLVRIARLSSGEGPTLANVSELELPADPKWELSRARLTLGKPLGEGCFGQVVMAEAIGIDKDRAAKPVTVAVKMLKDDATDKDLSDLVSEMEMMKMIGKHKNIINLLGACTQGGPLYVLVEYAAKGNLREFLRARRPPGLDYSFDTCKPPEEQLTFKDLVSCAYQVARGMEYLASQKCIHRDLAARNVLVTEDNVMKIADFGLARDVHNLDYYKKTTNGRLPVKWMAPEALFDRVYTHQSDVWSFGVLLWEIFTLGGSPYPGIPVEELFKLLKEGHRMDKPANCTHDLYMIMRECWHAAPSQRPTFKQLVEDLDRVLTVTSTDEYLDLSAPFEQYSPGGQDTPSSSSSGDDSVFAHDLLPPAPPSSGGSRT

GSK3A (human) = GSK3A (human) (UniProt P49840)
[1] = biological target: JAK1 JH1 catalytic (human) (UniProt P23458)
JAK1 JH1 catalytic (human), sequence (P23458 whole entry, looked up): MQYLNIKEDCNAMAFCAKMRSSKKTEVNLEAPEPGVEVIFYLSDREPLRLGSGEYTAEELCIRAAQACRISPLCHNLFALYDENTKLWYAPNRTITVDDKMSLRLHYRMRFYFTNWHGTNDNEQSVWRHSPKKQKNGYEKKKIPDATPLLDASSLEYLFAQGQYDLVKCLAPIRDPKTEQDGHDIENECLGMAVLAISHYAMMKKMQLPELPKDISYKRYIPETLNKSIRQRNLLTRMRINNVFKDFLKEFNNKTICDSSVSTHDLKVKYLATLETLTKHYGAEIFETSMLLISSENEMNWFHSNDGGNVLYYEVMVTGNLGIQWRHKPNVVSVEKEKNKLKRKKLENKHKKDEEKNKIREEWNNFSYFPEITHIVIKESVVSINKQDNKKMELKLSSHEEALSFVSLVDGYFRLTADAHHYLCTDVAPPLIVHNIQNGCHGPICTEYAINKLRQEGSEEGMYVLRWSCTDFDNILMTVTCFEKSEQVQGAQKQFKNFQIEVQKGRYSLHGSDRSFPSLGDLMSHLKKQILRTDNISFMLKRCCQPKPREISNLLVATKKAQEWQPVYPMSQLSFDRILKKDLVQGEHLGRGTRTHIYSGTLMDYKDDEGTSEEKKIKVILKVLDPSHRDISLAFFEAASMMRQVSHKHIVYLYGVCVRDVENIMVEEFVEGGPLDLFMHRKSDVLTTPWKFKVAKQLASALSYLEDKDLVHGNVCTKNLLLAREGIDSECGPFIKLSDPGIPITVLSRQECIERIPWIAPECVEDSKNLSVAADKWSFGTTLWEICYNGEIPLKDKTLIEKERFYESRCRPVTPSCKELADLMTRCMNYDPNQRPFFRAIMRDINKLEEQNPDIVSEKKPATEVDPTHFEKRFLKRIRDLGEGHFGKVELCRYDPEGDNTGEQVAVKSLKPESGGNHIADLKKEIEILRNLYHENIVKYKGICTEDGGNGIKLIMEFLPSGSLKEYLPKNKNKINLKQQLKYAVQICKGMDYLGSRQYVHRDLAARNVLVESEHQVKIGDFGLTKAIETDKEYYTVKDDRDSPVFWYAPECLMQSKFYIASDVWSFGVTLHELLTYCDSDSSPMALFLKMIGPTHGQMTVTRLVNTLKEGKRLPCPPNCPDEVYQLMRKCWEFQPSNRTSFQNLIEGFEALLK

MAP3K3 (human) = MAP3K3 (human) (UniProt Q99759)
MAP4K2 (human) = MAP4K2 (human) (UniProt Q12851)
MAPK12 (human) = MAPK12 (human) (UniProt P53778)
MAPK14 (human) = MAPK14 (human) (UniProt Q16539)
MARK3 (human) = MARK3 (human) (UniProt P27448)
MARK4 (human) = MARK4 (human) (UniProt Q96L34)
MARK4 (human), sequence (Q96L34 whole entry, looked up): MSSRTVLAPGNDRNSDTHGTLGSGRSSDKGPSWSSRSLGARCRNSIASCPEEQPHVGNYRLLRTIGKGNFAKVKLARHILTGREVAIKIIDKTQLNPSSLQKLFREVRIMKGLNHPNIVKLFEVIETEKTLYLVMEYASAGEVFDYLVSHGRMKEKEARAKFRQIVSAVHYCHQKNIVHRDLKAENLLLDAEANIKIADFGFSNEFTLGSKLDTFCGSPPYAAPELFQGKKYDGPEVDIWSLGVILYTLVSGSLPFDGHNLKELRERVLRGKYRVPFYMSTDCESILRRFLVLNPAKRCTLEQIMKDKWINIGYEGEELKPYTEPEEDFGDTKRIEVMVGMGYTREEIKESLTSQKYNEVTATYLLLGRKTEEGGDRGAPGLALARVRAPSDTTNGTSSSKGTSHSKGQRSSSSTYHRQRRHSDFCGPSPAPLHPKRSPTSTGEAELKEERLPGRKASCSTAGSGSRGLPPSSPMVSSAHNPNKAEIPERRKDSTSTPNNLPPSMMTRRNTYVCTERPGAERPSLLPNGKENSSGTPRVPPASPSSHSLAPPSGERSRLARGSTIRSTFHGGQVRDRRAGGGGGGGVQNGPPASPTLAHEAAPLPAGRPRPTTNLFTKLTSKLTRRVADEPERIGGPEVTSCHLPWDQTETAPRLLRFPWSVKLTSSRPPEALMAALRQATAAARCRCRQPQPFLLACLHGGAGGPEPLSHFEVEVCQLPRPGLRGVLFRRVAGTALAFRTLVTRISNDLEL

MYLK (human) = MYLK (human) (UniProt Q15746)
NEK4 (human) = NEK4 (human) (UniProt P51957)
PAK6 (human) = PAK6 (human) (UniProt Q9NQU5)
PLK2 (human) = PLK2 (human) (UniProt Q9NYY3)
PRKACA (human) = PRKACA (human) (UniProt P17612)
PRKD2 (human) = PRKD2 (human) (UniProt Q9BZL6)
PTK2B (human) = PTK2B (human) (UniProt Q14289)
RAF1 (human) = RAF1 (human) (UniProt P04049)
RIPK2 (human) = RIPK2 (human) (UniProt O43353)
ROCK2 (human) = ROCK2 (human) (UniProt O75116)
SLK (human) = SLK (human) (UniProt Q9H2G2)
SRC (human) = SRC (human) (UniProt P12931)
STK17A (human) = STK17A (human) (UniProt Q9UEE5)
STK24 (human) = STK24 (human) (UniProt Q9Y6E0)
SYK (human) = SYK (human) (UniProt P43405)
TEC (human) = TEC (human) (UniProt P42680)
TGFBR1 (human) = TGFBR1 (human) (UniProt P36897)
TSSK2 (human) = TSSK2 (human) (UniProt Q96PF2)
TSSK2 (human), sequence (Q96PF2 whole entry, looked up): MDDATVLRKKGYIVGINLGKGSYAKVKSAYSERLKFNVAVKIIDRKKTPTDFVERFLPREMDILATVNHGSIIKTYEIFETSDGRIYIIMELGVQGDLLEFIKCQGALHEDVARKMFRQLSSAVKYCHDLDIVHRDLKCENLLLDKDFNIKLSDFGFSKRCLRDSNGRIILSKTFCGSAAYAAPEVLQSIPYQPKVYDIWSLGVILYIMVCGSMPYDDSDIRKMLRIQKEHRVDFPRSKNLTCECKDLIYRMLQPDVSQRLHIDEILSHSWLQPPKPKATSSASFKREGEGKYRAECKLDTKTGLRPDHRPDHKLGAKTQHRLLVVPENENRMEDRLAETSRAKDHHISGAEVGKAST

[2] = biological target: TYK2 JH1 catalytic (human) (UniProt P29597)
ZAP70 (human) = ZAP70 (human) (UniProt P43403)

ACVR1B (human), sequence (P36896 whole entry, looked up): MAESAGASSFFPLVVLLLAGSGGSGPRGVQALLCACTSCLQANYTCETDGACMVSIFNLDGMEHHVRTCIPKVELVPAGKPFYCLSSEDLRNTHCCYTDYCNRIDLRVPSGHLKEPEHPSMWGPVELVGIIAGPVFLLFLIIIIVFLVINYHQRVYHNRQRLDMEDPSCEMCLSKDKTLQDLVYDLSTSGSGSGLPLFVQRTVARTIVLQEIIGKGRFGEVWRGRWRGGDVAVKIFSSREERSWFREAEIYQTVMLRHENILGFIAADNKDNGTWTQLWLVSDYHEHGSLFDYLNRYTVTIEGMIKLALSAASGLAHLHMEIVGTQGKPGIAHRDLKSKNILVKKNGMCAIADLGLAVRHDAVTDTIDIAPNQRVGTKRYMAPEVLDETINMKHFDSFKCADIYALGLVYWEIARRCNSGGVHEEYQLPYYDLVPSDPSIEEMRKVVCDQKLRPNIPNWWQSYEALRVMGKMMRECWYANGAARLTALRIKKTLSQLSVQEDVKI

Work on `Cn1c2ccccc2c2c3c(c4c5ccccc5n(CCC#N)c4c21)CNC3=O` yielded a residual activity (ACVR1B (human)) of 115%, a residual activity (AKT1 (human)) of 108% and a residual activity (AURKA (human)) of 56.8%. For the same compound, the residual activity (AXL (human)) was 102%, the residual activity (BTK (human)) was 22% and the residual activity (CAMKK2 (human)) was 3.88%. For the same compound, the residual activity (CDC42BPA (human)) was 89.9%, the residual activity (CDK9 CCNT1 (human)) was 46.8% and the residual activity (CSNK1A1 (human)) was 75.4%. The residual activity (CSNK1G3 (human)) was 137%, the residual activity (CSNK2A1 (human)) was 73.1% and the residual activity (EPHA5 (human)) was 88.2%. For the same compound, the residual activity (EPHB2 (human)) was 77.7%, the residual activity (FGFR3 (human)) was 76.7% and the residual activity (GSK3A (human)) was 35.6%. For the same compound, the residual activity [1] was 20.2%, the residual activity (MAP3K3 (human)) was 5.86% and the residual activity (MAP4K2 (human)) was 5.68%. It also gave a residual activity (MAPK12 (human)) of 85.8%, a residual activity (MAPK14 (human)) of 93.5% and a residual activity (MARK3 (human)) of 13.9%. It also gave a residual activity (MARK4 (human)) of 10.8%, a residual activity (MYLK (human)) of 24.6% and a residual activity (NEK4 (human)) of 49.1%. For the same compound, the residual activity (PAK6 (human)) was 20.4%, the residual activity (PLK2 (human)) was 105% and the residual activity (PRKACA (human)) was 83.7%. It also gave a residual activity (PRKD2 (human)) of 18.7%, a residual activity (PTK2B (human)) of 26.7% and a residual activity (RAF1 (human)) of 111%. It also gave a residual activity (RIPK2 (human)) of 55.1%, a residual activity (ROCK2 (human)) of 48.5% and a residual activity (SLK (human)) of 34.1%. For the same compound, the residual activity (SRC (human)) was 74.8%, the residual activity (STK17A (human)) was 85.3% and the residual activity (STK24 (human)) was 62.8%. It also gave a residual activity (SYK (human)) of 14.6%, a residual activity (TEC (human)) of 96.4% and a residual activity (TGFBR1 (human)) of 104%. The residual activity (TSSK2 (human)) was 74.3%, the residual activity [2] was 2.62% and the residual activity (ZAP70 (human)) was 77.7%.

In the case of `COc1cc(Nc2c(C#N)cnc3cc(OCCCN4CCN(C)CC4)c(OC)cc23)c(Cl)cc1Cl`, the residual activity (ACVR1B (human)) is reported as 105%, the residual activity (AKT1 (human)) is reported as 94.4% and the residual activity (AURKA (human)) is reported as 86%. It also gave a residual activity (AXL (human)) of 37.6%, a residual activity (BTK (human)) of 5.69% and a residual activity (CAMKK2 (human)) of 85.1%. The residual activity (CDC42BPA (human)) was 112%, the residual activity (CDK9 CCNT1 (human)) was 87% and the residual activity (CSNK1A1 (human)) was 49.5%. It also gave a residual activity (CSNK1G3 (human)) of 98.3%, a residual activity (CSNK2A1 (human)) of 116% and a residual activity (EPHA5 (human)) of 37.1%. For the same compound, the residual activity (EPHB2 (human)) was 17.4%, the residual activity (FGFR3 (human)) was 82.6% and the residual activity (GSK3A (human)) was 103%. The residual activity [1] was 99%, the residual activity (MAP3K3 (human)) was 11.8% and the residual activity (MAP4K2 (human)) was 3.16%. The residual activity (MAPK12 (human)) was 99.9%, the residual activity (MAPK14 (human)) was 88.6% and the residual activity (MARK3 (human)) was 65.4%. For the same compound, the residual activity (MARK4 (human)) was 60.6%, the residual activity (MYLK (human)) was 72% and the residual activity (NEK4 (human)) was 32.6%. It also gave a residual activity (PAK6 (human)) of 105%, a residual activity (PLK2 (human)) of 100% and a residual activity (PRKACA (human)) of 73.8%. For the same compound, the residual activity (PRKD2 (human)) was 35.5%, the residual activity (PTK2B (human)) was 32.6% and the residual activity (RAF1 (human)) was 105%. For the same compound, the residual activity (RIPK2 (human)) was 111%, the residual activity (ROCK2 (human)) was 85% and the residual activity (SLK (human)) was 21.6%. It also gave a residual activity (SRC (human)) of 6.05%, a residual activity (STK17A (human)) of 107% and a residual activity (STK24 (human)) of 11%. For the same compound, the residual activity (SYK (human)) was 21.1%, the residual activity (TEC (human)) was 96.1% and the residual activity (TGFBR1 (human)) was 99%. It also gave a residual activity (TSSK2 (human)) of 83.9%, a residual activity [2] of 98.1% and a residual activity (ZAP70 (human)) of 101%.
